Source: PMC9031908 (RSC Advances, 2021)
Read-outs that look alike come from different tables or passages of the source.

Assays:
5-HT6 receptor [1] = biological target: T1, 5-HT6 receptor (Homo sapiens, UniProt P50406); test: biochemical; assay type: binding
5-HT1A receptor [2] = biological target: T2, 5-HT1A receptor (Rattus norvegicus, UniProt P19327); test: biochemical; assay type: binding
T2 sequence (P19327 1-422): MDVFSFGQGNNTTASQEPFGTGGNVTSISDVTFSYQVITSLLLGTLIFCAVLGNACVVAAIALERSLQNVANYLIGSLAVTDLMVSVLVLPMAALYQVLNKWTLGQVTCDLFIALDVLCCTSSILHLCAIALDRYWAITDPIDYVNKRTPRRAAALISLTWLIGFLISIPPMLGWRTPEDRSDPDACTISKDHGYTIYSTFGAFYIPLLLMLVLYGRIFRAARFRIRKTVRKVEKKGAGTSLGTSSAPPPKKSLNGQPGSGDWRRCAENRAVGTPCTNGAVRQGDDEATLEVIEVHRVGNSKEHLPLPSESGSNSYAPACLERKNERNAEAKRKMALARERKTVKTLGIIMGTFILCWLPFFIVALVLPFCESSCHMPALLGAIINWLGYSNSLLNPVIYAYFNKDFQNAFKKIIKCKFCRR

D2 receptor [3] = biological target: D2 receptor (Rattus norvegicus, UniProt P61169); test: biochemical; assay type: binding
5-HT2A receptor [4] = biological target: 5-HT2A receptor (Rattus norvegicus, UniProt P14842); test: biochemical; assay type: binding
H3 receptor = H3 receptor (Rattus norvegicus, UniProt Q9QYN8); assay type: binding
mice [5] = test: Apomorphine-induced climbing; assay type: in vivo; conditions: po
mice [6] = test: Catalepsy test; assay type: in vivo; conditions: po
hH3R = hH3R (Homo sapiens, UniProt Q9Y5N1); test: H3 functional activity
5-HT2A receptor [7] = biological target: 5-HT2A receptor (Homo sapiens, UniProt P28223); test: 5-HT2A functional activity; assay type: cell-based
mice [8] = test: Weight gain after 28 days of administration; assay type: in vivo; conditions: oral
α1 receptor = conditions: read-out: Receptor affinity Ki ± SEM, α1; three experiments, mean ± SEM
5-HT6 receptor [9] = biological target: T1, 5-HT6 receptor; test: cell-based
H1 receptor = H1 receptor (Cavia porcellus, UniProt P31389); test: biochemical
5-HT1A receptor [10] = biological target: T3, 5-HT1A receptor (Homo sapiens, UniProt P08908); test: cell-based
T3 sequence (P08908 1-422): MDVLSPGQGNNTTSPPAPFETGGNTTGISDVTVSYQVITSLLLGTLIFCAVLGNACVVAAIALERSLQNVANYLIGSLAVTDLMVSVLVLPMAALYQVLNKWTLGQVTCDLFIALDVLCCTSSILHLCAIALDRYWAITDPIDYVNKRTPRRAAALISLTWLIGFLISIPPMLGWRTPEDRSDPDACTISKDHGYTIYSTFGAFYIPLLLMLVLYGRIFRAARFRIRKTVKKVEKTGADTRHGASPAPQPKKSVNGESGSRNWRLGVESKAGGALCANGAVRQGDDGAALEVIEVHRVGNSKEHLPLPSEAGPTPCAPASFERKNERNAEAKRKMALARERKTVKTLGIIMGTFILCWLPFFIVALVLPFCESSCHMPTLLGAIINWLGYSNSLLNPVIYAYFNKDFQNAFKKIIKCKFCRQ

mice [11] = test: MK-801-induced hyperactivity; conditions: po
D2 receptor [12] = biological target: D2 receptor (Homo sapiens, UniProt P14416); test: cell-based
rats [13] = conditions: oral
5-HT2C receptor = biological target: T4, 5-HT2C receptor (Rattus norvegicus, UniProt P08909); test: biochemical
T4 sequence (P08909 33-460): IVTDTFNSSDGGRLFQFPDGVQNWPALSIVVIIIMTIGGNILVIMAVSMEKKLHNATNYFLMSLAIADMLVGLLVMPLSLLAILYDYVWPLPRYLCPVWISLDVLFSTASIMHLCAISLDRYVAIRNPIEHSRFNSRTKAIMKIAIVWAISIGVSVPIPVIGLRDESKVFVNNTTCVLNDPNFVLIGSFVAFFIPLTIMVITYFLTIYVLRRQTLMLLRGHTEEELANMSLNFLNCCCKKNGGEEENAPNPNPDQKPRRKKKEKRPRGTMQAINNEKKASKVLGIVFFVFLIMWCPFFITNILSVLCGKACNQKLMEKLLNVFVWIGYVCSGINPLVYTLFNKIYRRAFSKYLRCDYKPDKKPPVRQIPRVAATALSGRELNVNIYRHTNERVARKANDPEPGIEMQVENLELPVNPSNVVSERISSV

mice [14] = test: Acute toxicity; conditions: oral, 24 h
mice [15] = test: Serum prolactin after 28 days of administration; assay type: in vivo; conditions: oral
rats [16] = test: Conditioned avoidance response; assay type: in vivo; conditions: po

Sequence of 5-HT2A receptor (Rattus norvegicus, UniProt P14842) (P14842 whole entry): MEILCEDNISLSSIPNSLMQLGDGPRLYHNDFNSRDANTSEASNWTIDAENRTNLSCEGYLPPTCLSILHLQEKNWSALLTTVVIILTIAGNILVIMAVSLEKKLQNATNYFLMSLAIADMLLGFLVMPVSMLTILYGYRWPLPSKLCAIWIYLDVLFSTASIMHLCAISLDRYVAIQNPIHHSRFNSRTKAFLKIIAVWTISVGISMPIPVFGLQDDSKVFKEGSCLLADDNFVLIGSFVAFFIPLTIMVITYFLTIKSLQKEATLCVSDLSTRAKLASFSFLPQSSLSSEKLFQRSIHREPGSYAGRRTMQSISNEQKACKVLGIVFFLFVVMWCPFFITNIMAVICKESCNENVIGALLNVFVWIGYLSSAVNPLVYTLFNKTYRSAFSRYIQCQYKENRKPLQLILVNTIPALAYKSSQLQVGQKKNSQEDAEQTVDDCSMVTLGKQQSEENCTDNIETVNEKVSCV
T1 sequence (P50406 whole entry): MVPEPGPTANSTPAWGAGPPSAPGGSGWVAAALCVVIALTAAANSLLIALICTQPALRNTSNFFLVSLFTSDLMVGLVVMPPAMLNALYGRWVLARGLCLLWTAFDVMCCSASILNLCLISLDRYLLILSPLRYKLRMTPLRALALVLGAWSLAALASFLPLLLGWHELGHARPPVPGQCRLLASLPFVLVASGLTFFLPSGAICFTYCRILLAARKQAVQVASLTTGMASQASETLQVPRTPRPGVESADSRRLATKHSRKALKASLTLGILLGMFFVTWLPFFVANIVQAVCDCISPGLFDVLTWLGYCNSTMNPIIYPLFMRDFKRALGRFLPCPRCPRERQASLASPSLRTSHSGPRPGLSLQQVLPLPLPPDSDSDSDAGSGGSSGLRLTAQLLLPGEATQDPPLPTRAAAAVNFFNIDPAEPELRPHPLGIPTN
Sequence of D2 receptor (Rattus norvegicus, UniProt P61169) (P61169 whole entry): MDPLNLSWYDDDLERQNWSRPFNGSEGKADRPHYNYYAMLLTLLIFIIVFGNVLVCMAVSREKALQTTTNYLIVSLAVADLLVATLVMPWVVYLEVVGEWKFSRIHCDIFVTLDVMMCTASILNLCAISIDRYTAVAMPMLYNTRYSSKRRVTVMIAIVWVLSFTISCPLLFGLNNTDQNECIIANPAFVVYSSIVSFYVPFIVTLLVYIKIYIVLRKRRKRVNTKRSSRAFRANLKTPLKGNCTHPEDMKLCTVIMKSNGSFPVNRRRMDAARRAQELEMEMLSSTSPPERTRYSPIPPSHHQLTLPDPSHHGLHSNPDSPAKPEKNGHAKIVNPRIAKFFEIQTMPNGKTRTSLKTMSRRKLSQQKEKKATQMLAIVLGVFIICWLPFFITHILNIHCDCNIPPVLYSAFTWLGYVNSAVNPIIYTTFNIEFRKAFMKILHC
Sequence of H3 receptor (Q9QYN8 whole entry): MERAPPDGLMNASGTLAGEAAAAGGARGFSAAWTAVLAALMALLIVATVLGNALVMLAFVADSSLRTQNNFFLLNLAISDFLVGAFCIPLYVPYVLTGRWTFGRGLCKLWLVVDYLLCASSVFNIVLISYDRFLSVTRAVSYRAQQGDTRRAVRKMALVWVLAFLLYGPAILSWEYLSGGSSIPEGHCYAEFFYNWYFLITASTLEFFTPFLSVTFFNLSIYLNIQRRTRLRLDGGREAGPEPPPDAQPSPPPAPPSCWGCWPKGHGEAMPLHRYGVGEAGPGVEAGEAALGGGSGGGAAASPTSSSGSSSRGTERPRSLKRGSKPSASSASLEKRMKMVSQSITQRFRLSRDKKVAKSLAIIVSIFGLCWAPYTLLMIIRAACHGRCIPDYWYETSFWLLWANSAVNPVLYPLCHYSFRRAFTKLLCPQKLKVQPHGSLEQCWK
Sequence of hH3R (Q9Y5N1 whole entry): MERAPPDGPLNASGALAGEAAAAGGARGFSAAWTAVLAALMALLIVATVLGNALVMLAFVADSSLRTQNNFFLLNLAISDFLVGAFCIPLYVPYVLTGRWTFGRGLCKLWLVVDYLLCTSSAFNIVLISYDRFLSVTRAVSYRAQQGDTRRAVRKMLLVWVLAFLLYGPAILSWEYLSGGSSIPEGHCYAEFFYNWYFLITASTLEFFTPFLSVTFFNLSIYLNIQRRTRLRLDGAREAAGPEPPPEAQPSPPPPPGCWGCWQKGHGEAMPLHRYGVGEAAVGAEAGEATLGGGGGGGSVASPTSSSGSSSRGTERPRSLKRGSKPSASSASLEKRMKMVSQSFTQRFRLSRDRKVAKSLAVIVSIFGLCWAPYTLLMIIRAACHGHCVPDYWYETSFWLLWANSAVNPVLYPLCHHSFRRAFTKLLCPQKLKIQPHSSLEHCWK
Sequence of H1 receptor (P31389 whole entry): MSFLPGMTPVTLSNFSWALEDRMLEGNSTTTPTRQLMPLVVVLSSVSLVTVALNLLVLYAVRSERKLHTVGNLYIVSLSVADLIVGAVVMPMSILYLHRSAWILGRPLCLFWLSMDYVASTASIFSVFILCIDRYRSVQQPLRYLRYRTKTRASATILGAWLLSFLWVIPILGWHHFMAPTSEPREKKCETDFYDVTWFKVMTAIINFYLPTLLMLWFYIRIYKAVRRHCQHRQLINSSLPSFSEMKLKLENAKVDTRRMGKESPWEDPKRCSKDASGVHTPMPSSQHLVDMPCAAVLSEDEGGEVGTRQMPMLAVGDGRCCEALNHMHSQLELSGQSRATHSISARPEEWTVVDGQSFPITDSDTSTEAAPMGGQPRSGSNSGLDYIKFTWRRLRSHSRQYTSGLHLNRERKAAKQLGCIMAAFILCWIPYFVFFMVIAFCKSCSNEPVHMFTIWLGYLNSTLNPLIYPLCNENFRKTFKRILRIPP
Sequence of D2 receptor (Homo sapiens, UniProt P14416) (P14416 whole entry): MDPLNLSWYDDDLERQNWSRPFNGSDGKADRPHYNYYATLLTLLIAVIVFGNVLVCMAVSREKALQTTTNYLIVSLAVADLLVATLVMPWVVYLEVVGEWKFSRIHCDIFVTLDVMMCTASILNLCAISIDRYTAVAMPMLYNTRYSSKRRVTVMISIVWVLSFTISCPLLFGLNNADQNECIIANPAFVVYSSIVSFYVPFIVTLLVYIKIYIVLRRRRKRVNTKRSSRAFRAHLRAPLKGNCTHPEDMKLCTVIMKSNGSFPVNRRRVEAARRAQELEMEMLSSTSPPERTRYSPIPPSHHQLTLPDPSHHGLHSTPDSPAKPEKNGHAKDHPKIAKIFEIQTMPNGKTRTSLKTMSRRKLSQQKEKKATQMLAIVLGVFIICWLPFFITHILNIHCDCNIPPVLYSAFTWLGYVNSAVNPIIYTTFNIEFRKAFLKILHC
Sequence of 5-HT2A receptor (Homo sapiens, UniProt P28223) (P28223 whole entry): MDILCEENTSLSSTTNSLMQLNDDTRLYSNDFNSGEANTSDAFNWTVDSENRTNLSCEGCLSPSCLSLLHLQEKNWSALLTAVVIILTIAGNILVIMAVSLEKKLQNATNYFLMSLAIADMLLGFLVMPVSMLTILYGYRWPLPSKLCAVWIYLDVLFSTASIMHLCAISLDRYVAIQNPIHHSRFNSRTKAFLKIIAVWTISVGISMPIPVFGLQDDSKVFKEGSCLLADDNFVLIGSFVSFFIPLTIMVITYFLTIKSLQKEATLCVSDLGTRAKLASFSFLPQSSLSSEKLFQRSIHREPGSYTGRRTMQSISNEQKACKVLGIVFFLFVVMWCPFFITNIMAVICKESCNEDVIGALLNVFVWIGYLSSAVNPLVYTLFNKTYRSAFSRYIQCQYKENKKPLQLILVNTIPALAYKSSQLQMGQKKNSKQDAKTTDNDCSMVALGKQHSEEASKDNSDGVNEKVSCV

Row | Ki (5-HT6 receptor [1]) [nM] | Ki (5-HT1A receptor [2]) [nM] | Ki (D2 receptor [3]) [nM] | Ki (5-HT2A receptor [4]) [nM] | Ki (H3 receptor) [nM] | Structure (SMILES) | other results
1 | 385 ± 51 | 305 ± 28.2 | 138 ± 30.1 | 324 ± 27.5 | 85 ± 9.8 | Cc1cc(CN2CCCCC2)ccc1OCCCN1CCN(c2cccc3sccc23)CC1 [Compound 3j] | –
2 | 389 ± 63.2 | 285 ± 15.7 | 197 ± 15.5 | 175 ± 25.3 | 88.4 ± 10.1 | Fc1cc(CN2CCCCC2)ccc1OCCCN1CCN(c2cccc3sccc23)CC1 [Compound 3l] | –
3 | 365 ± 55.6 | 213 ± 24.3 | 110 ± 8.9 | 146 ± 11.5 | 81.5 ± 6.5 | Fc1cc(OCCCN2CCN(c3cccc4sccc34)CC2)ccc1CN1CCCCC1 [Compound 3m] | –
4 | 416 ± 81.3 | 229 ± 25.8 | 144 ± 15 | 198 ± 16.9 | – | COc1cc(CN2CCCCC2)ccc1OCCCN1CCN(c2cccc3sccc23)CC1 [Compound 3p] | –
5 | 336 ± 65.3 | 16.7 ± 1.8 | 17.5 ± 1.9 | – | 12.1 ± 1.5 | c1cc(N2CCN(CCCOc3ccc(CN4CCOCC4)cc3)CC2)c2ccsc2c1 [Compound 3w] | APO: apomorphine-induced climbing ED50 (mice [5]): 0.28 mg/kg; CAT: catalepsy ED50 (mice [6]): 27.5 mg/kg; IC50 (hH3R): 232 nM; IC50 (5-HT2A receptor [7]): 142 nM; weight gain (mice [8]): negligible weight gain; Ki (α1 receptor): 406 ± 60.8 nM; IC50 (5-HT6 receptor [9]): 413 nM; Ki (H1 receptor): 820 ± 48.7 nM; IC50 (5-HT1A receptor [10]): 218 nM; MK-801: MK-801-induced hyperactivity ED50 (mice [11]): 0.17 mg/kg; IC50 (D2 receptor [12]): 11.6 nM; novelty discrimination index (NDI) (rats [13]; 0.3 and 1.0 mg kg^−1): obvious increase; effect on total exploration time during the acquisition trial (rats [13]; 1.0–10.0 mg kg^−1): no obvious effect; difference in exploration times for novel and familiar objects, retention trial (rats [13]; low dose 0.1 mg kg^−1): no significant difference; Ki (5-HT2C receptor): 572 ± 91.5 nM

The next lines start with the compound.

Row | Structure (SMILES) | Ki (5-HT6 receptor [1]) [nM] | Ki (5-HT1A receptor [2]) [nM] | Ki (D2 receptor [3]) [nM] | Ki (5-HT2A receptor [4]) [nM] | Ki (H3 receptor) [nM] | other results
6 | Fc1cc(CN2CCCC2)ccc1OCCCN1CCN(c2cccc3sccc23)CC1 [Compound 3c] | 383 ± 34.6 | 155 ± 15.2 | 100 ± 7 | 259 ± 14 | 92.9 ± 3.6 | –
7 | Fc1cc(OCCCN2CCN(c3cccc4sccc34)CC2)ccc1CN1CCCC1 [Compound 3d] | 354 ± 65.8 | 144 ± 10.4 | 98.7 ± 6.8 | 262 ± 17.5 | 54.4 ± 2 | –
8 | Clc1cc(OCCCN2CCN(c3cccc4sccc34)CC2)ccc1CN1CCCC1 [Compound 3f] | 376 ± 58.3 | 185 ± 16.3 | 120 ± 15 | 268 ± 20.2 | 75.3 ± 8.5 | –
9 | COc1cc(CN2CCCC2)ccc1OCCCN1CCN(c2cccc3sccc23)CC1 [Compound 3g] | 462 ± 55.7 | 149 ± 11.7 | 99.5 ± 8.4 | 129 ± 15.1 | 62.5 ± 5 | –
10 | c1cc(N2CCN(CCCOc3ccc(CN4CCCC4)cc3)CC2)c2ccsc2c1 [Compound 3i] | 384 ± 51.3 | 135 ± 10.5 | 91.1 ± 4.5 | 186 ± 20.1 | 53 ± 6.3 | –
11 | O=C(CCCN1CCC(O)(c2ccc(Cl)cc2)CC1)c1ccc(F)cc1 [Haloperidol, haloperidol] | – | – | – | – | – | APO: apomorphine-induced climbing ED50 (mice [5]): 0.09 mg/kg; CAT: catalepsy ED50 (mice [6]): 0.51 mg/kg; MK-801: MK-801-induced hyperactivity ED50 (mice [11]): 0.11 mg/kg; LD50 (mice [14]): 21.0 mg/kg
12 | Cc1nc2n(c(=O)c1CCN1CCC(c3noc4cc(F)ccc34)CC1)CCCC2 [Risperidone, risperidone] | – | – | – | – | – | APO: apomorphine-induced climbing ED50 (mice [5]): 0.05 mg/kg; CAT: catalepsy ED50 (mice [6]): 0.51 mg/kg; CAT: catalepsy ED50 (mice [6]; listed as risperidone): 1.15 mg/kg; serum prolactin levels (mice [15]): significant increase; weight gain (mice [8]): significant weight gain; MK-801: MK-801-induced hyperactivity ED50 (mice [11]): 0.02 mg/kg; LD50 (mice [14]): 82.0 mg/kg; CAR: conditioned avoidance response ED50 (rats [16]): 0.65 mg/kg; CAR: conditioned avoidance response ED50 (rats [16]; listed as risperidone): 2.1 mg/kg
13 | CCN(C)C(=O)Oc1cccc([C@H](C)N(C)C)c1 [rivastigmine, reference compound] | – | – | – | – | – | novelty discrimination index (NDI) (rats [13]; 0.1 and 0.3 mg kg^−1): obvious increase; exploration time for novel things vs vehicle, retention trial (rats [13]; 0.1 to 3.0 mg kg^−1): longer exploration
